# Compound: Cc1nc(C(=O)NCC(=O)O)c(O)c2ccc(Oc3ccccc3)cc12 [FG-4592] + CC(=O)Nc1cccc(-n2c(=O)n(C3CC3)c(=O)c3c(Nc4ccc(I)cc4F)n(C)c(=O)c(C)c32)c1 [Trametinib] (partner 0.02 µM)
# Assay: relative viability (nuclei count vs DMSO), 5 days (fraction); higher = more cells survive
# Settings: first compound 0.08 µM
# Method in brief: (§1)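 Nuclei were stained with Hoechst during a one-step fixation (final 0.05% Triton X-100, 1% formaldehyde, 1 ug/ml Hoechst) carried out 5 days after dosing, then counted on 4× images. The cells, lung cancer lines in 1536-well plates, had been dosed by pin tool the day after seeding with one drug alone or a fixed anchor-drug dose plus five library-drug doses (not always all listed) in √10 steps. Relative viability is the nuclei count in treated wells divided by that in vehicle wells, and each value is the median of duplicate plates.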
row,Cell Line,relative viability
1,LXF-289,0.676
2,NCI-H23,0.381
3,NCI-H647,0.444
4,CAL-12T,0.367
5,NCI-H1651,0.85
6,EPLC-272H,0.288
7,NCI-H2228,0.497
8,NCI-H1792,0.429
9,NCI-H1355,0.462
10,NCI-H3122,0.19
11,NCI-H1437,0.539
12,NCI-H1755,0.792
13,NCI-H2023,0.488
14,HCC-15,0.41
15,PC-14,0.708
16,EKVX,0.318
17,LC-2-ad,0.896
18,NCI-H1944,0.426
19,NCI-H1975,0.33
20,RERF-LC-KJ,0.841
21,NCI-H358,0.138
22,NCI-H650,1.06
23,PC-3 [JPC-3],0.773

# Same assay, conditions: first compound 0.253 µM
row,Cell Line,relative viability
1,LXF-289,0.68
2,NCI-H23,0.38
3,NCI-H647,0.453
4,CAL-12T,0.307
5,NCI-H1651,0.836
6,EPLC-272H,0.232
7,NCI-H2228,0.503
8,NCI-H1792,0.435
9,NCI-H1355,0.455
10,NCI-H3122,0.244
11,NCI-H1437,0.414
12,NCI-H1755,0.74
13,NCI-H2023,0.595
14,HCC-15,0.359
15,NCI-H1793,0.453
16,PC-14,0.717
17,EKVX,0.352
18,LC-2-ad,0.675
19,NCI-H1944,0.409
20,NCI-H1975,0.292
21,RERF-LC-KJ,0.848
22,NCI-H358,0.135
23,NCI-H650,0.936
24,PC-3 [JPC-3],0.601

# Same assay, conditions: first compound 0.8 µM
row,Cell Line,relative viability
1,LXF-289,0.682
2,NCI-H23,0.37
3,NCI-H647,0.336
4,CAL-12T,0.301
5,NCI-H1651,0.76
6,EPLC-272H,0.234
7,NCI-H2228,0.494
8,NCI-H3122,0.196
9,NCI-H1437,0.473
10,NCI-H1755,0.729
11,NCI-H2023,0.612
12,HCC-15,0.352
13,PC-14,0.71
14,EKVX,0.334
15,LC-2-ad,0.953
16,NCI-H1944,0.464
17,NCI-H1975,0.337
18,RERF-LC-KJ,0.763
19,NCI-H358,0.122
20,NCI-H650,0.916

# Same assay, conditions: first compound 2.53 µM
row,Cell Line,relative viability
1,LXF-289,0.712
2,NCI-H23,0.394
3,NCI-H647,0.448
4,CAL-12T,0.29
5,NCI-H1651,0.774
6,EPLC-272H,0.303
7,NCI-H2228,0.406
8,NCI-H1792,0.414
9,NCI-H1355,0.421
10,NCI-H3122,0.264
11,NCI-H1437,0.47
12,NCI-H1755,0.827
13,NCI-H2023,0.593
14,HCC-15,0.395
15,NCI-H1793,0.434
16,PC-14,0.833
17,EKVX,0.332
18,LC-2-ad,0.842
19,NCI-H1944,0.422
20,NCI-H1975,0.24
21,RERF-LC-KJ,0.876
22,NCI-H358,0.16
23,NCI-H650,1
24,PC-3 [JPC-3],0.72

# Same assay, conditions: first compound 8 µM
row,Cell Line,relative viability
1,LXF-289,0.731
2,NCI-H23,0.327
3,NCI-H647,0.333
4,CAL-12T,0.219
5,NCI-H1651,0.82
6,EPLC-272H,0.308
7,NCI-H2228,0.208
8,NCI-H1792,0.375
9,NCI-H1355,0.337
10,NCI-H3122,0.119
11,NCI-H1437,0.301
12,NCI-H1755,0.725
13,NCI-H2023,0.506
14,HCC-15,0.412
15,NCI-H1793,0.4
16,PC-14,0.496
17,EKVX,0.24
18,LC-2-ad,0.967
19,NCI-H1944,0.371
20,NCI-H1975,0.184
21,RERF-LC-KJ,0.857
22,NCI-H358,0.124
23,NCI-H650,0.838
24,PC-3 [JPC-3],0.844

# Compound: Cc1nc(C(=O)NCC(=O)O)c(O)c2ccc(Oc3ccccc3)cc12 [FG-4592] + C[C@]1(O)C[C@@H](c2nc(-c3ccc4ccc(-c5ccccc5)nc4c3)c3c(N)nccn32)C1 [Linsitinib] (partner 1 µM)
# Assay: as above
# Settings: first compound 0.08 µM
# Method in brief: as §1
row,Cell Line,relative viability
1,LXF-289,0.972
2,NCI-H23,0.611
3,NCI-H647,1.18
4,CAL-12T,0.709
5,NCI-H1651,0.986
6,EPLC-272H,1.09
7,NCI-H2228,0.586
8,NCI-H1792,0.522
9,NCI-H1355,0.87
10,NCI-H3122,0.95
11,NCI-H1437,0.995
12,NCI-H1755,0.993
13,NCI-H2023,0.611
14,HCC-15,0.874
15,NCI-H1793,0.732
16,PC-14,0.977
17,EKVX,1.01
18,LC-2-ad,0.81
19,NCI-H1944,1.15
20,NCI-H1975,1.01
21,RERF-LC-KJ,0.835
22,NCI-H358,0.723
23,NCI-H650,0.884
24,PC-3 [JPC-3],0.965

# Same assay, conditions: first compound 0.253 µM
row,Cell Line,relative viability
1,LXF-289,0.947
2,NCI-H23,0.501
3,NCI-H647,1.1
4,CAL-12T,0.798
5,NCI-H1651,0.998
6,EPLC-272H,1.06
7,NCI-H2228,0.628
8,NCI-H1792,0.411
9,NCI-H1355,0.778
10,NCI-H3122,1.03
11,NCI-H1437,0.976
12,NCI-H1755,0.961
13,NCI-H2023,0.575
14,HCC-15,0.805
15,NCI-H1793,0.78
16,PC-14,0.941
17,EKVX,0.916
18,LC-2-ad,0.757
19,NCI-H1944,1.16
20,NCI-H1975,0.902
21,RERF-LC-KJ,0.958
22,NCI-H358,0.679
23,NCI-H650,0.704
24,PC-3 [JPC-3],0.974

# Same assay, conditions: first compound 0.8 µM
row,Cell Line,relative viability
1,LXF-289,1.02
2,NCI-H23,0.635
3,NCI-H647,1.3
4,CAL-12T,0.836
5,NCI-H1651,0.915
6,EPLC-272H,0.859
7,NCI-H2228,0.795
8,NCI-H1792,0.487
9,NCI-H3122,1.07
10,NCI-H1437,0.99
11,NCI-H1755,0.963
12,NCI-H2023,0.646
13,HCC-15,0.93
14,PC-14,1
15,EKVX,0.948
16,LC-2-ad,0.878
17,NCI-H1944,1.01
18,NCI-H1975,1.01
19,RERF-LC-KJ,0.919
20,NCI-H358,0.73
21,NCI-H650,0.669
22,PC-3 [JPC-3],0.969

# Same assay, conditions: first compound 2.53 µM
row,Cell Line,relative viability
1,LXF-289,0.968
2,NCI-H23,0.496
3,NCI-H647,1.32
4,CAL-12T,0.775
5,NCI-H1651,1.09
6,EPLC-272H,1.18
7,NCI-H2228,0.612
8,NCI-H1792,0.577
9,NCI-H1355,0.843
10,NCI-H3122,1.02
11,NCI-H1437,0.95
12,NCI-H1755,1.04
13,NCI-H2023,0.77
14,HCC-15,0.831
15,NCI-H1793,1.01
16,PC-14,0.991
17,EKVX,0.989
18,LC-2-ad,0.816
19,NCI-H1944,1.2
20,NCI-H1975,0.96
21,RERF-LC-KJ,0.901
22,NCI-H358,0.681
23,NCI-H650,0.724
24,PC-3 [JPC-3],1.04

# Same assay, conditions: first compound 8 µM
row,Cell Line,relative viability
1,LXF-289,1.02
2,NCI-H23,0.463
3,NCI-H647,1.16
4,CAL-12T,0.716
5,NCI-H1651,0.815
6,EPLC-272H,1.03
7,NCI-H2228,0.727
8,NCI-H1792,0.567
9,NCI-H1355,0.736
10,NCI-H3122,0.816
11,NCI-H1437,0.786
12,NCI-H1755,1.06
13,NCI-H2023,0.685
14,HCC-15,0.914
15,NCI-H1793,0.856
16,PC-14,0.891
17,EKVX,0.989
18,LC-2-ad,0.911
19,NCI-H1944,1.04
20,NCI-H1975,0.752
21,RERF-LC-KJ,0.82
22,NCI-H358,0.605
23,NCI-H650,0.631
